{"source": "patent US20010010822A1", "about": "“LIPID COMPLEXES AND LIPOSOMES OF HIGHLY INSOLUBLE PLATINUM COMPLEXES” (priority 1999, published 2001)", "test_system": "PLATINUM RESISTANT P388 CELL LINE", "assay": "Anti-tumor activity of DACH-platinum compounds against platinum resistant P388 cell line", "format": "in vivo", "details": "initial tumor burden 1.0 × 10^6", "data": [{"smiles": "N.N.[Cl][Pt][Cl]", "note": "[Cisplatin]", "values": [{"measurement": "% Increase in Length of Survival", "setting": "dose 3.5 mg/kg", "result": "+3%"}, {"measurement": "% T/C", "setting": "dose 3.5 mg/kg", "result": 103.8, "unit": "%"}, {"measurement": "Log10 Change in Tumor Burden", "setting": "dose 3.5 mg/kg", "result": "+1.7"}, {"measurement": "Median Day of Death", "setting": "dose 3.5 mg/kg", "result": 13.5}, {"measurement": "% Increase in Length of Survival", "setting": "dose 5.3 mg/kg", "result": "+15%"}, {"measurement": "% T/C", "setting": "dose 5.3 mg/kg", "result": 115.4, "unit": "%"}, {"measurement": "Log10 Change in Tumor Burden", "setting": "dose 5.3 mg/kg", "result": "+1.5"}, {"measurement": "Median Day of Death", "setting": "dose 5.3 mg/kg", "result": 15.0}, {"measurement": "% Increase in Length of Survival", "setting": "dose 8.0 mg/kg", "result": "+23%"}, {"measurement": "% T/C", "setting": "dose 8.0 mg/kg", "result": 123.1, "unit": "%"}, {"measurement": "Log10 Change in Tumor Burden", "setting": "dose 8.0 mg/kg", "result": "+1.5"}, {"measurement": "Median Day of Death", "setting": "dose 8.0 mg/kg", "result": 16.0}]}]}
